Test results reported in the NIST ThermoML archive (doi:10.1021/je201116t).
± gives the expanded uncertainty stated by the source.

Legend:
[1] = 101 kPa, Liquid; for viscosity: Capillary tube (Ostwald / Ubbelohde) method
[2] = xn = mol fraction of the nth substance listed; details: 101 kPa, Liquid, x1 = 1; for viscosity: Capillary tube (Ostwald / Ubbelohde) method

| mass density ([1]; 298.15 K) | viscosity ([1]; 298.15 K) | mass density ([1]; 303.15 K) | viscosity ([1]; 303.15 K) | mass density ([1]; 308.15 K) | viscosity ([1]; 308.15 K) | mass density ([1]; 313.15 K) | viscosity ([1]; 313.15 K) | viscosity ([2]; 298.15 K) | mass density ([2]; 298.15 K) | viscosity ([2]; 303.15 K) | mass density ([2]; 303.15 K) | viscosity ([2]; 308.15 K) | mass density ([2]; 308.15 K) | viscosity ([2]; 313.15 K) | mass density ([2]; 313.15 K) | SMILES |
| --- | --- | --- | --- | --- | --- | --- | --- | --- | --- | --- | --- | --- | --- | --- | --- | --- |
| 786.686 ± 1.4 kg/m3 | 0.558 ± 0.0068 mPa·s | 781.993 ± 1.4 kg/m3 | 0.5261 ± 0.0065 mPa·s | 777.249 ± 1.4 kg/m3 | 0.4966 ± 0.0061 mPa·s | 772.475 ± 1.5 kg/m3 | 0.4702 ± 0.0058 mPa·s | – | – | – | – | – | – | – | – | CO [methanol] |
| – | – | – | – | – | – | – | – | 0.558 ± 0.0068 mPa·s | 786.686 ± 1.4 kg/m3 | 0.5261 ± 0.0065 mPa·s | 781.993 ± 1.4 kg/m3 | 0.4966 ± 0.0061 mPa·s | 777.249 ± 1.4 kg/m3 | 0.4702 ± 0.0058 mPa·s | 772.475 ± 1.5 kg/m3 | CO [methanol] + CCC(=O)[O-].CC[NH+]1CCNCC1 |
| 799.557 ± 1.3 kg/m3 | 1.941 ± 0.024 mPa·s | 795.543 ± 1.3 kg/m3 | 1.728 ± 0.021 mPa·s | 791.479 ± 1.4 kg/m3 | 1.545 ± 0.019 mPa·s | 787.371 ± 1.4 kg/m3 | 1.385 ± 0.017 mPa·s | – | – | – | – | – | – | – | – | CCCO [propan-1-ol] |
| – | – | – | – | – | – | – | – | 1.941 ± 0.024 mPa·s | 799.557 ± 1.3 kg/m3 | 1.728 ± 0.021 mPa·s | 795.543 ± 1.3 kg/m3 | 1.545 ± 0.019 mPa·s | 791.479 ± 1.4 kg/m3 | 1.385 ± 0.017 mPa·s | 787.371 ± 1.4 kg/m3 | CCCO [propan-1-ol] + CCC(=O)[O-].CC[NH+]1CCNCC1 |

The next lines start with the compound.

| SMILES | mass density ([1]; 298.15 K) | viscosity ([1]; 298.15 K) | mass density ([1]; 303.15 K) | viscosity ([1]; 303.15 K) | mass density ([1]; 308.15 K) | viscosity ([1]; 308.15 K) | mass density ([1]; 313.15 K) | viscosity ([1]; 313.15 K) | viscosity ([2]; 298.15 K) | mass density ([2]; 298.15 K) | viscosity ([2]; 303.15 K) | mass density ([2]; 303.15 K) | viscosity ([2]; 308.15 K) | mass density ([2]; 308.15 K) | viscosity ([2]; 313.15 K) | mass density ([2]; 313.15 K) |
| --- | --- | --- | --- | --- | --- | --- | --- | --- | --- | --- | --- | --- | --- | --- | --- | --- |
| CCC(=O)[O-].CC[NH+]1CCNCC1 [N-ethylpiperazinium propionate] | 1008.36 ± 1.2 kg/m3 | 243.49 ± 7.6 mPa·s | 1004.38 ± 1.2 kg/m3 | 164.81 ± 4.6 mPa·s | 1000.33 ± 1.2 kg/m3 | 113.44 ± 2.7 mPa·s | 996.237 ± 1.2 kg/m3 | 80.93 ± 1.8 mPa·s | – | – | – | – | – | – | – | – |
| CCCCO [butan-1-ol] | 805.814 ± 1.3 kg/m3 | 2.577 ± 0.032 mPa·s | 801.996 ± 1.3 kg/m3 | 2.272 ± 0.029 mPa·s | 798.13 ± 1.4 kg/m3 | 2.01 ± 0.025 mPa·s | 794.226 ± 1.4 kg/m3 | 1.786 ± 0.023 mPa·s | – | – | – | – | – | – | – | – |
| CCCCO [butan-1-ol] + CCC(=O)[O-].CC[NH+]1CCNCC1 | – | – | – | – | – | – | – | – | 2.577 ± 0.032 mPa·s | 805.814 ± 1.3 kg/m3 | 2.272 ± 0.029 mPa·s | 801.996 ± 1.3 kg/m3 | 2.01 ± 0.025 mPa·s | 798.13 ± 1.4 kg/m3 | 1.786 ± 0.023 mPa·s | 794.226 ± 1.4 kg/m3 |
| CCO [ethanol] | 785.499 ± 1.4 kg/m3 | 1.091 ± 0.013 mPa·s | 781.197 ± 1.4 kg/m3 | 0.9986 ± 0.012 mPa·s | 776.853 ± 1.4 kg/m3 | 0.9139 ± 0.011 mPa·s | 772.468 ± 1.5 kg/m3 | 0.8387 ± 0.01 mPa·s | – | – | – | – | – | – | – | – |
| CCO [ethanol] + CCC(=O)[O-].CC[NH+]1CCNCC1 | – | – | – | – | – | – | – | – | 1.091 ± 0.013 mPa·s | 785.499 ± 1.4 kg/m3 | 0.9986 ± 0.012 mPa·s | 781.197 ± 1.4 kg/m3 | 0.9139 ± 0.011 mPa·s | 776.853 ± 1.4 kg/m3 | 0.8387 ± 0.01 mPa·s | 772.468 ± 1.5 kg/m3 |
